Results taken from US12043600B2, “Microbiocidal compounds” (SYNGENTA CROP PROTECTION AG, priority 2018, dated 2024).
Like-named read-outs stand apart in the source and are kept apart here.

Columns and labels:
Alternaria solani = assay: Alternaria solani/Tomato/Leaf Disc (Early Blight); assay type: in vivo; details: foliar, tomato leaf disc, compared to untreated control
Procedure, shortened: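 Tomato cv. Baby leaf disks on agar were sprayed with diluted formulated compound and inoculated with spores 2 days later. Incubation at 23° C./21° C. day/night, 80% rh, 12/12 h light; percent disease control versus untreated scored 5-7 days after application.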

[1] = test system: Puccinia recondita f. sp. tritici; assay: Puccinia recondita f. sp. tritici/Wheat/Leaf Disc Curative (Brown Rust); assay type: in vivo; details: foliar, wheat leaf disc curative, compared to untreated control
Procedure, shortened: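 Curative leaf-disc test on wheat cv. Kanzler segments on agar, spore-inoculated and kept dark at 19° C, 75% rh; formulated compound in water applied 1 day after inoculation. Incubated at 19° C, 75% rh, 12 h light/12 h dark; percent disease control versus untreated scored 6-8 days after application.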

[2] = test system: Glomerella lagenarium (Colletotrichum lagenarium); assay: Glomerella lagenarium (Colletotrichum lagenarium)/Liquid Culture (Anthracnose); assay type: cell-based; details: Colletotrichum orbiculare, liquid culture, compared to untreated control
[3] = test system: Phaeosphaeria nodorum (Septoria nodorum); assay: Phaeosphaeria nodorum (Septoria nodorum)/Wheat/Leaf Disc Preventative (Glume Blotch); assay type: in vivo; details: Parastagonospora nodorum, foliar, wheat leaf disc preventative, compared to untreated control
Procedure, shortened: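 Wheat cv. Kanzler leaf discs on agar were sprayed with formulated compound diluted in water and inoculated with P. nodorum spores 2 days later. Discs kept at 20 °C, 75% rh, 12 h light/dark; percent disease control versus untreated scored 5–7 days after application.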

[4] = test system: Mycosphaerella graminicola (Septoria tritici); assay: Mycosphaerella graminicola (Septoria tritici)/Liquid Culture (Septoria Blotch); assay type: cell-based; details: Zymoseptoria tritici; 20 ppm; liquid culture; compared to untreated control
Procedure, shortened: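 Conidia from cryogenic storage mixed into potato dextrose broth and added to microtiter wells already holding DMSO solutions of test compound. Activity expressed as percentage disease control.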

Plasmopara viticola = assay: whole plant or invertebrate; assay type: in vivo; details: foliar, read-out: control of Plasmopara viticola
[5] = test system: Monographella nivalis (Microdochium nivale); assay: Monographella nivalis (Microdochium nivale)/Liquid Culture (Foot Rot Cereals); assay type: cell-based; details: liquid culture, compared to untreated control
Procedure, shortened: (§1)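 Conidia from cryogenic storage were mixed directly into potato dextrose broth, then added to microtiter wells already holding the test compound dissolved in DMSO. Fungal growth in liquid culture was then assessed.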

[6] = test system: Magnaporthe grisea (Pyricularia oryzae); assay: whole plant or invertebrate; assay type: in vivo; details: foliar, read-out: control of Magnaporthe grisea
[7] = test system: Blumeria graminis f. sp. tritici (Erysiphe graminis f. sp. tritici); assay: Blumeria graminis f. sp. tritici/Wheat/Leaf Disc Preventative (Powdery Mildew on Wheat); assay type: in vivo; details: foliar, wheat leaf disc preventative, compared to untreated control
Procedure, shortened: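 Wheat cv. Kanzler leaf segments on agar sprayed with formulated compound, inoculated with powdery mildew 1 day later and held at 20° C, 60% rh (24 h dark, then 12 h light/12 h dark). Percent disease control versus untreated scored 6-8 days after application.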

Sclerotinia sclerotiorum = assay: Sclerotinia sclerotiorum/Liquid Culture (Cottony Rot); assay type: cell-based; details: liquid culture, compared to untreated control
Method: (§2) Mycelia fragments of a newly grown liquid culture of the fungus are directly mixed into nutrient broth (PDB potato dextrose broth). After placing a (DMSO) solution of test compound into a microtiter plate (96-well format) the nutrient broth containing the fungal material is added.

[8] = test system: Puccinia recondita f. sp. tritici; assay: Puccinia recondita f. sp. tritici/Wheat/Leaf Disc Preventative (Brown Rust); assay type: in vivo; details: foliar, 200 ppm, wheat leaf disc preventative, compared to untreated control, read-out: control of Puccinia recondita f. sp. tritici
[9] = test system: Thanatephorus cucumeris (Rhizoctonia solani); assay: Thanatephorus cucumeris (Rhizoctonia solani)/Liquid Culture (Foot Rot, Damping-Off); assay type: cell-based; details: liquid culture, compared to untreated control
Method: Mycelia fragments of a newly grown liquid culture of the fungus are directly mixed into nutrient broth (PDB potato dextrose broth). After placing a (DMSO) solution of the test compounds into a microtiter plate (96-well format), the nutrient broth containing the fungal material is added.

[10] = test system: Mycosphaerella arachidis (Cercospora arachidicola); assay: Mycosphaerella arachidis (Cercospora arachidicola)/Liquid Culture (Early Leaf Spot); assay type: cell-based; details: liquid culture, compared to untreated control
Procedure, shortened: as §1

[11] = Photostability assay (Atlas Suntest); assay type: physicochemical; details: Suntest 750 W/m^2, spotted on microscope slides
Procedure, shortened: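 Compound (2 μl of 1 g/L methanol stock) spotted on glass slides and irradiated at 750 W/m^2 in a Suntest. Slides were washed with H2O:MeCN:THF 50:40:10 and analysed by reverse-phase UPLC-PDA; peak area versus initial gave % parent remaining at 3 hours.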

Pythium ultimum = assay: Pythium ultimum/Liquid Culture (Seedling Damping Off); assay type: cell-based; details: Globisporangium ultimum, liquid culture, compared to untreated control
Method: as §2, with “fragments and oospores” for “fragments”, “format),” for “format)”, “mycelia/spore mixture” for “material”

Phytophthora infestans = assay: whole plant or invertebrate; assay type: in vivo; details: in Solanum lycopersicum, foliar, read-out: control of Phytophthora infestans
Phakopsora pachyrhizi = assay: Phakopsora pachyrhizi/Soybean/Preventative (Soybean Rust); assay type: in vivo; details: 288 h
[12] = test system: Botryotinia fuckeliana (Botrytis cinerea); assay: Botryotinia fuckeliana (Botrytis cinerea)/Liquid Culture (Gray Mould); assay type: cell-based; details: liquid culture, compared to untreated control
Method: Conidia of the fungus from cryogenic storage are directly mixed into nutrient broth (Vogels broth). After placing a (DMSO) solution of test compound into a microtiter plate (96-well format), the nutrient broth containing the fungal spores is added.

Row | Structure (SMILES) | pest or weed control at 200 ppm (Alternaria solani) | pest or weed control at 200 ppm [1] | inhibition of growth at 20 ppm [2] | pest or weed control at 200 ppm [3] | inhibition of growth at 20 ppm [4] | pest or weed control at 200 ppm (Plasmopara viticola) | inhibition of growth at 20 ppm [5] | pest or weed control at 200 ppm [6] | pest or weed control at 200 ppm [7] | pest or weed control at 200 ppm [8] | inhibition of growth at 20 ppm [10] | % Parent Remaining @ 3 hrs [11] | melting point | inhibition of growth at 20 ppm (Pythium ultimum) | pest or weed control at 200 ppm (Phytophthora infestans) | inhibition of growth at 20 ppm [12] | also measured
1 | CO/C=C(\Oc1cc(-n2ccc(C(C)(F)F)n2)ccc1C)C(=O)OC [Compound E-68, methyl (Z)-2-[5-[3-(1,1-difluoroethyl)pyrazol-1-yl]-2-methyl-phenoxy]-3-methoxy-prop-2-enoate] | ≥ 80% | ≥ 80% | ≥ 80% | ≥ 80% | ≥ 80% | ≥ 80% | ≥ 80% | ≥ 80% | ≥ 80% | ≥ 80% | ≥ 80% | 40% | 119 to 121 °C | ≥ 80% | – | – | inhibition of growth at 20 ppm (Sclerotinia sclerotiorum): ≥ 80%; inhibition of growth at 20 ppm [9]: ≥ 80%
2 | CO/C=C(\Oc1cc(-n2cc(C3CCC3)cn2)ccc1C)C(=O)OC [Compound E-80, methyl (Z)-2-[5-(4-cyclobutylpyrazol-1-yl)-2-methyl-phenoxy]-3-methoxy-prop-2-enoate] | ≥ 80% | ≥ 80% | ≥ 80% | – | ≥ 80% | ≥ 80% | ≥ 80% | ≥ 80% | ≥ 80% | ≥ 80% | ≥ 80% | – | – | ≥ 80% | ≥ 80% | ≥ 80% | pest or weed control at 200 ppm (Phakopsora pachyrhizi; foliar, soybean leaf disc preventative, compared to untreated control, read-out: control of Phakopsora pachyrhizi): ≥ 50%
3 | CO/C=C(\Oc1cc(-n2ccc(C(C)C)n2)ccc1C)C(=O)OC [Compound E-92, methyl (Z)-2-[5-(3-isopropylpyrazol-1-yl)-2-methyl-phenoxy]-3-methoxy-prop-2-enoate] | – | – | ≥ 80% | ≥ 80% | ≥ 80% | ≥ 80% | ≥ 80% | ≥ 80% | ≥ 80% | – | ≥ 80% | 33% | 88 to 91 °C | ≥ 80% | ≥ 80% | ≥ 80% | pest or weed control at 0.6 ppm (Phakopsora pachyrhizi; Phakopsora pachyrhizi (Soybean rust), 0.6 ppm): 0%; pest or weed control at 2 ppm (Phakopsora pachyrhizi; Phakopsora pachyrhizi (Soybean rust), 2 ppm): 0%; pest or weed control at 6 ppm (Phakopsora pachyrhizi; Phakopsora pachyrhizi (Soybean rust), 6 ppm): 35%; pest or weed control at 20 ppm (Phakopsora pachyrhizi; Phakopsora pachyrhizi (Soybean rust), 20 ppm): 90%; pest or weed control at 60 ppm (Phakopsora pachyrhizi; Phakopsora pachyrhizi (Soybean rust), 60 ppm): 100%; pest or weed control at 200 ppm (Phakopsora pachyrhizi; Phakopsora pachyrhizi (Soybean rust), read-out: control (%)): 100%
